From the NIST ThermoML archive (doi:10.1016/j.jct.2019.04.018)

Test: xn = mol fraction of the nth substance listed
Details: 100 kPa, Liquid; for viscosity: Capillary tube (Ostwald / Ubbelohde) method; for speed of sound: Frequency=2 MHz, Single path-length method; for mass density: Vibrating tube method

C=COCCCC [1-(ethenyloxy)butane] + C=COC(C)=O
Details	mass density, 303.15 K [kg/m3]	mass density, 308.15 K [kg/m3]	mass density, 313.15 K [kg/m3]	speed of sound, 303.15 K [m/s]	speed of sound, 308.15 K [m/s]	speed of sound, 313.15 K [m/s]	viscosity, 303.15 K [mPa·s]	viscosity, 308.15 K [mPa·s]	viscosity, 313.15 K [mPa·s]
x2 = 0	769	763.9	758.8	1086	1076	1066	0.386	0.373	0.352
x2 = 0.1022	779.6	774.4	769.1	1086	1076	1066	0.385	0.368	0.35
x2 = 0.2014	790.7	785.4	780	1086	1076	1065	0.381	0.364	0.344
x2 = 0.2948	801.9	796.5	791	1087	1075	1064	0.377	0.36	0.339
x2 = 0.4002	815.6	810	804.4	1087	1075	1064	0.374	0.357	0.338
x2 = 0.502	829.9	824.1	818.3	1087	1074	1062	0.372	0.355	0.336
x2 = 0.5997	844.6	838.7	832.8	1088	1074	1062	0.373	0.357	0.337
x2 = 0.6979	860.6	854.5	848.4	1088	1074	1061	0.375	0.358	0.338
x2 = 0.7949	877.7	871.6	865.3	1089	1074	1059	0.378	0.36	0.341
x2 = 0.8999	898	891.9	885.5	1090	1074	1057	0.383	0.365	0.346
